Results on eight molecules are retold here after patent US12552768B2, “Pyridinylpyrazole derivative or pharmaceutically acceptable salt thereof and use thereof” (INDUSTRY-UNIVERSITY COOPERATION FOUNDATION HANYANG …, priority 2021, dated 2026).

One test deals with PLK1(h) (Homo sapiens, UniProt P53350). Description: PLK1 kinase inhibition, radiometric [33P-ATP] assay (IC50 Profiler Express). The format is biochemical. To be noted: for IC50: 10 μM ATP, 1 μM substrate (casein), 40 minutes at room temperature. As to the method: (§1) The analysis protocol was as follows. 1 μM substrate (casein), 10 μM ATP and PLK1(h) (5-10 mU) were incubated with 25 mM Tris pH 7.5, 0.02 mM EGTA, 0.66 mg/mL myelin basic protein, 10 mM Mg acetate and [33P-ATP] (specific activity of about 500 cpm/pmol, concentration as required) in a reaction solution with a final volume of 25 μL. The reaction was initiated by adding Mg-ATP mixture. After incubation at room temperature for 40 minutes, the reaction was stopped by adding 5 μL of a 3% phosphoric acid solution. 10 μL of the reaction solution was spotted on a P30 filter mat and washed 3 times for 5 minutes in 75 mM phosphoric acid and once in methanol prior to drying and scintillation counting. The 30 selected protein kinases were ABL1, AKT1, ALK, Aurora A, AXL, AXL (R499C), BRAF (V599E), BTK, c-MER, c-MET, c-Src, CAMKK1, CDK1/cyclin A, EGFR, ERK1, FGFR3, FYN, IGF1R, JAK3, KDR/VEGFR2, LCK, LYN, MEK1, PKA, PLK1, PLK2, PLK3, PLK4/SAK, SYK and TYRO3/SKY4.
Sequence of PLK1(h) (P53350 whole entry): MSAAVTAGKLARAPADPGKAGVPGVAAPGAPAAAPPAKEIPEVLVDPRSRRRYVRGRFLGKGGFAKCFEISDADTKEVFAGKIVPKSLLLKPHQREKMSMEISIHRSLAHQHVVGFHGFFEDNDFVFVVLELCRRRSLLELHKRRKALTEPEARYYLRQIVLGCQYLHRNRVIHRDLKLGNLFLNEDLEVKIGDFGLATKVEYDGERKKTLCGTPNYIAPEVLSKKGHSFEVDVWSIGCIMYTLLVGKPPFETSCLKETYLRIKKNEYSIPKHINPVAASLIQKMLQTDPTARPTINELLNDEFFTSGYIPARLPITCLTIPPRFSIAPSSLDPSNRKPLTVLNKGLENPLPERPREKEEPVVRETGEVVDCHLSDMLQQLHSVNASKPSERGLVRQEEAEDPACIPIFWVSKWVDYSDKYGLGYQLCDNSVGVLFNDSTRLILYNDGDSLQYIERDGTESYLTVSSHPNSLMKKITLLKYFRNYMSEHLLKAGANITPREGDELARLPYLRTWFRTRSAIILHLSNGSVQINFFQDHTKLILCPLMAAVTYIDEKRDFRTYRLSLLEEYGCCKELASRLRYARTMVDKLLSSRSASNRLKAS

In test [1] the test system is 30 selected protein kinases. The experiment in a line: Selected kinase profiling of 30 protein kinases (Reaction Biology Kinase Hot Spot service). The format is biochemical. To be noted: screening at 10 μM or 30 μM (FIG. 2). The method, then: as §1

Usually IC50 stands for the concentration at which inhibition is half-maximal. Read a low IC50 as inhibition by little substance. Take `NC(=O)c1nn(-c2ccnc(Nc3ccccc3)c2)cc1OCc1ccccc1C(F)(F)F` [Compound 13b]: at PLK1(h), the 50% inhibitory concentration (IC50) worked out at 0.847 µM.

With `NC(=O)c1nn(-c2ccnc(Nc3ccccc3)c2)cc1OCc1ccccc1` [Compound 13a, 4-(benzyloxy)-1-(2-(phenylamino)pyridin-4-yl)-1H-pyrazole-3-carboxamide], at PLK1(h), the concentration for half-maximal inhibition (IC50) turned out to be 9.89 µM. This IC50 is about 12-fold higher than that of the molecule before.

In the case of `NC(=O)c1nn(-c2ccnc(Nc3ccccc3)c2)cc1OCc1ccc(CO)cc1Cl` [Compound 15, 4-((2-chloro-4-(hydroxymethyl)benzyl)oxy)-1-(2-(phenylamino)pyridin-4-yl)-1H-pyrazole-3-carboxamide], the “selectivity for PLK1 over other protein kinases (in words)” value in test [1] is listed as “superior effect of inhibiting PLK1 selectively as compared to other protein kinases”. Further, at PLK1(h), the “inhibitory activity against PLK1 (in words)” value is on record as “highest inhibitory activity against PLK1” and half-maximal inhibition (IC50) required 0.219 µM.

The molecule `COc1ccccc1Nc1cc(-n2cc(OCc3ccc(CN(C)C)cc3Cl)c(C(N)=O)n2)ccn1` [Compound 18] gave a half-maximal inhibitory concentration (IC50) against PLK1(h) of 0.998 µM.

At PLK1(h), `COc1ccccc1Nc1cc(-n2cc(OCc3ccccc3)c(C(N)=O)n2)ccn1` [Compound 14a] yielded an IC50 of 1.02 µM.

`CN(C)Cc1ccc(COc2cn(-c3ccnc(Nc4ccccc4)c3)nc2C(N)=O)c(Cl)c1` [Compound 16, 4-((2-chloro-4-((dimethylamino)methyl)benzyl)oxy)-1-(2-(phenylamino)pyridin-4-yl)-1H-pyrazole-3-carboxamide] registered an IC50 against PLK1(h) of 1.01 µM.

Consider `COc1ccccc1Nc1cc(-n2cc(OCc3ccc(CO)cc3Cl)c(C(N)=O)n2)ccn1` [Compound 17], for which, on PLK1(h), half-maximal inhibition (IC50) required 0.312 µM.

On PLK1(h), `COc1ccccc1Nc1cc(-n2cc(OCc3ccccc3C(F)(F)F)c(C(N)=O)n2)ccn1` [Compound 14b] returned an IC50 of 1.31 µM.
